According to patent publication US9180159B2, “Use of cell-permeable peptide inhibitors of the JNK signal transduction pathway for the treatment of chronic or non-chronic inflammatory digestive diseases” (Xigen Inflammation Ltd., priority 2008, dated 2015):
Non-standard residues stand in square brackets, D forms with d.

How the values were obtained:
[1] = tested on: transient global ischemia; conditions: Carboni et al. 2004; cited from earlier work
[2] = tested on: TC-3 cell cultures; assay: Cellular import and intracellular persistence of fluorescein-labeled peptides in TC-3 cells; assay type: cell-based; conditions: 1 μM
Protocol: The ability of the L- and D-enantiomeric forms of TAT and TAT-IB1(s) peptides (“TAT-IB peptides”) to enter cells was evaluated. L-TAT, D-TAT, L-TAT-IB1(s), and D-TAT-IB1(s) peptides [SEQ ID NOs: 5, 6, 9 and 12, respectively] were labeled by N-terminal addition of a glycine residue conjugated to fluorescein. Labeled peptides (1 μM) were added to TC-3 cell cultures, which were maintained as described in Example 3. At predetermined times cells were washed with PBS and fixed for five minutes in ice-cold methanol-acetone (1:1) before being examined under a fluorescence microscope. Fluorescein-labeled BSA (1 μM, 12 moles/mole BSA) was used as a control.
Little to no signal was present at 48 hours.

[3] = tested on: TNBS-induced colitis; assay: TNBS-induced colitis (IBD study) in BALB/c mice, Example 12; assay type: in vivo; conditions: for clinical score: XG-102 any dose, route or schedule, Sulfasalazine 10 mg/kg PO daily
Protocol: b) Constitution of test groups and dose levels • The table below lists the experimental groups comprising the study.
c) Test Procedures • Colitis was induced by administration of TNBS […], as a single or repeated daily doses (see above).
d) Observations and Examinations • i) Clinical signs • Throughout the duration of the above experiment, careful clinical examinations were carried out and recorded. Observations included changes external appearance, e.g. of the skin, fur, eyes, mucous membranes, occurrence of secretions and excretions (e.g. diarrhea), and autonomic activity. Changes in gait, posture and response to handling, as well as the presence of bizarre behavior, tremors, convulsions, sleep and coma were also noted. • ii) Body weights • Determination of individual body weight of animals was made on a daily basis. • iii) Clinical assessment of colitis • Body weight, stool consistency and bleeding per rectum were all recorded daily and served as the parameters of disease severity score:
• iv) Gross pathology of the colon • On the last day of the experiment, animals were euthanized and the colon was removed for gross pathology evaluation according to the following score: […]

[4] = tested on: TC-3 cells; assay: IL-1 induced pancreatic beta-cell death in TC-3 cells treated with peptides; assay type: cell-based; conditions: one single addition 1 μM
Protocol: Inhibition of IL-1 induced pancreatic beta-cell death by the D-TAT-IB1(s) peptide was analyzed. TC-3 cells were incubated as described above for 30 minutes with one single addition of the indicated peptides (1, μM), then IL-1 (10 ng/ml) was added.
Apoptotic cells were then counted after two days of incubation with IL-1 by use of Propidium Iodide and Hoechst 33342 nuclear staining. A minimum of 1,000 cells were counted for each experiment.
Long term inhibition of IL-1P induced cell-death by the D-TAT-IB1 peptide was also analyzed. TC-3 cells were incubated as above for 30 minutes with one single addition of the indicated peptides (1 μM), then IL-1 (10 ng/ml) was added, followed by addition of the cytokine every two days. Apoptotic cells were then counted after 15 days of incubation with IL-1 by use of propidium iodide and Hoechst 33342 nuclear staining. […] A minimum of 1.000 cells were counted for each experiment.

[5] = tested on: Primary cultured macrophages; assay: Incorporation of XG-102 into primary cultured macrophages, detected with a specific antibody; assay type: cell-based; conditions: incubated with peptide and extensively washed
Protocol: FIG. 8 Primary cultured macrophages were incubated with XG-102 (SEQ ID NO: 11) and extensively washed.

[6] = tested on: THP-1 cells; assay: LPS-induced cytokine and chemokine release in THP-1 cells; assay type: cell-based
Excerpt: (§1) XG-102 (SEQ ID NO:11) inhibits cytokine release in both myeloid and lymphoid cell lines, reducing LPS-induced TNFa, IL-6 and MCP-1 release in THP-1 cells (Panels A-C) and PMA & ionomycin-induced IFNg, IL-6 and IL-2 production in Jurkat cells (Panels D-F).

[7] = tested on: Jurkat cells; assay: PMA & ionomycin-induced cytokine production in Jurkat cells; assay type: cell-based
Excerpt: as §1

[8] = tested on: murine macrophages; assay: LPS-induced cytokine release in murine macrophages; assay type: cell-based
[9] = tested on: murine T cells; assay: PMA & ionomycin-induced cytokine production in murine T cells; assay type: cell-based
[10] = tested on: primary lymphoid and myeloid cells; assay: Cytotoxicity in primary cells (FIG. 12 Panel F); assay type: cell-based, murine
[11] = tested on: TNBS-induced colitis; assay: TNBS-induced colitis in mice (FIG. 13); assay type: in vivo; conditions: subcutaneous, 50 and 100 mg/kg
Excerpt: JNK is activated in macrophages and lymphocytes of patients with inflammatory bowel disease, a response correlated with increased TNFa, IL-6 and IFNg production in lesions.

[12] = tested on: recombinant JNK1, JNK2 and JNK3; assay: Solid phase kinase assay, phosphorylation of c-Jun, ATF2 and Elk1 by recombinant JNKs; assay type: biochemical; conditions: GST-Jun (aa 1-73), 0-250 μM dosage study
Protocol: The effects of the peptides on JNKs-mediated phosphorylation of their target transcription factors were investigated in vitro. Recombinant and non activated JNK1, JNK2 and JNK3 were produced using a TRANSCRIPTION AND TRANSLATION rabbit reticulocyte lysate kit (Promega) and used in solid phase kinase assays with c-Jun, ATF2 and Elk1, either alone or fused to glutathione-S-transferase (GST), as substrates. Dose response studies were performed wherein L-TAT or L-TAT-IB1(s) peptides (0-25 μM) were mixed with the recombinant JNK1, JNK2, or JNK3 kinases in reaction buffer (20 mM Tris-acetate, 1 mM EGTA, 10 mM p-nitrophenyl-phosphate (pNPP), 5 mM sodium pyrophosphate, 10 mM p-glycerophosphate, 1 mM dithiothreitol) for 20 minutes. The kinase reactions were then initiated by the addition of 10 mM MgCl2 and 5 pCi ^33P-dATP and 1 μg of either GST-Jun (aa 1-89), GST-AFT2 (aa 1-96) or GST-ELK1 (aa 307-428). GST-fusion proteins were purchased from Stratagene (La Jolla, Calif.).
Ten μL of glutathione-agarose beads were also added to the mixture. Reaction products were then separated by SDS-PAGE on a denaturing 10% polyacrylamide gel. Gels were dried and subsequently exposed to X-ray films (Kodak). […] The ability of D-TAT, D-TAT-IB1(s) and L-TAT-IB1(s) peptides (0-250 μM dosage study) to inhibit GST-Jun (aa 1-73) phosphorylation by recombinant JNK1, JNK2, and JNK3 by were analyzed as described above. Overall, D-TAT-IB1(s) peptide decreased JNK-mediated phosphorylation of c-Jun, but at levels approximately 10-20 fold less efficiently than L-TAT-IB1(s).

[13] = tested on: JNK; conditions: JBDs; Dickens et al. Science 277: 693 (1997); cited from earlier work
[14] = tested on: primary embryonic cultures and differentiated PC12 cells; conditions: at dosages that inhibit activation of JNKs; after trophic withdrawal; cited from earlier work
[15] = mice treated with 1-methyl-4-phenyl tetrahydropyridine; cited from earlier work
[16] = tested on: cultured chick embryonic dorsal root ganglion, sympathetic, ciliary and motor neurons; conditions: Borasio et al. 1998; cited from earlier work

N#CC(c1ccnc(NCCc2cccnc2)n1)c1nc2ccccc2s1 (stereo not shown) [AS601245]
delayed loss of hippocampal CA1 neurons [1]: significant protection

Fluorescein-labeled BSA: Fluorescein-labeled BSA (1 μM, 12 moles/mole BSA) used as a control [reference compound]
entry into cells [2]: did not enter the cells

O=C(O)c1cc(/N=N/c2ccc(S(=O)(=O)Nc3ccccn3)cc2)ccc1O [Sulfasalazine, reference compound]
clinical score [3]: reduction in the clinical score
gross pathology score of the colon ([3]; end of study, 10 mg/kg PO daily): effective in reducing the gross pathology completely

NH2-TDQSRPVQPFLNLTTPRKPRYTDPPRRRQRRKKRG-COOH (HELM PEPTIDE1{[dT].[dD].[dQ].[dS].[dR].[dP].[dV].[dQ].[dP].[dF].[dL].[dN].[dL].[dT].[dT].[dP].[dR].[dK].[dP].[dR].[dY].[dT].[dD].[dP].[dP].[dR].[dR].[dR].[dQ].[dR].[dR].[dK].[dK].[dR].G}$$$$V2.0; SMILES CC(C)C[C@@H](NC(=O)[C@@H](Cc1ccccc1)NC(=O)[C@H]1CCCN1C(=O)[C@@H](CCC(N)=O)NC(=O)[C@H](NC(=O)[C@H]1CCCN1C(=O)[C@@H](CCCNC(=N)N)NC(=O)[C@@H](CO)NC(=O)[C@@H](CCC(N)=O)NC(=O)[C@@H](CC(=O)O)NC(=O)[C@H](N)[C@H](C)O)C(C)C)C(=O)N[C@H](CC(N)=O)C(=O)N[C@H](CC(C)C)C(=O)N[C@@H](C(=O)N[C@@H](C(=O)N1CCC[C@@H]1C(=O)N[C@H](CCCNC(=N)N)C(=O)N[C@H](CCCCN)C(=O)N1CCC[C@@H]1C(=O)N[C@H](CCCNC(=N)N)C(=O)N[C@H](Cc1ccc(O)cc1)C(=O)N[C@@H](C(=O)N[C@H](CC(=O)O)C(=O)N1CCC[C@@H]1C(=O)N1CCC[C@@H]1C(=O)N[C@H](CCCNC(=N)N)C(=O)N[C@H](CCCNC(=N)N)C(=O)N[C@H](CCCNC(=N)N)C(=O)N[C@H](CCC(N)=O)C(=O)N[C@H](CCCNC(=N)N)C(=O)N[C@H](CCCNC(=N)N)C(=O)N[C@H](CCCCN)C(=O)N[C@H](CCCCN)C(=O)N[C@H](CCCNC(=N)N)C(=O)NCC(=O)O)[C@H](C)O)[C@H](C)O)[C@H](C)O) [D-TAT-IB1]
IL-1 induced apoptosis after two days ([4]; IL-1 10 ng/ml): decreased IL-1 induced apoptosis to a similar extent as L-TAT-IB peptides

NH2-DQSRPVQPFLNLTTPRKPRPPRRRQRRKKRG-COOH (H-[dD][dQ][dS][dR][dP][dV][dQ][dP][dF][dL][dN][dL][dT][dT][dP][dR][dK][dP][dR][dP][dP][dR][dR][dR][dQ][dR][dR][dK][dK][dR]G-OH) [XG-102]
incorporation into primary macrophages [5]: strongly incorporated
LPS-induced IL-6 release [6]: reducing
LPS-induced MCP-1 release [6]: reducing
LPS-induced TNFa release [6]: reducing
PMA & ionomycin-induced IFNg production [7]: reducing
PMA & ionomycin-induced IL-2 production [7]: reducing
PMA & ionomycin-induced IL-6 production [7]: reducing
LPS-induced IL-6 release [8]: reducing
LPS-induced Rantes release [8]: reducing
LPS-induced TNFa release [8]: reducing
PMA & ionomycin-induced IFNg production [9]: reducing
PMA & ionomycin-induced TNFa production [9]: reducing
cytotoxicity at concentrations inhibiting cytokine release [10]: non-cytotoxic concentrations
DAI [11]: diminishing
protection from TNBS-induced colitis [11]: protects mice from TNBS-induced colitis
rectal bleeding [11]: diminishing
weight loss [11]: diminishing
clinical signs ([3]; 0.01-1000 μg/kg SC or PO, single or daily for 7 days): No abnormalities were observed
disease recovery (conclusion) ([3]; SC or PO): active in enhancing diseases recovery
clinical score [3]: an effect equivalent to or better than the one observed with the commonly used reference drug sulfasalazine
body weights (TNBS induced weight loss) ([3]; mouse, in vivo): either prevented the weight loss or ameliorated the symptoms and supported recovery
mortality rate ([3]; whole study): No mortality was recorded
entry into cells [2]: efficiently and rapidly (less than five minutes) entered cells
decrease of JNK-mediated phosphorylation of c-Jun, fold less efficient than L-TAT-IB1(s) [12]: 10-20 fold
long term protection from IL-1 induced cell-death, 15 days ([4]; IL-1 10 ng/ml every two days): able to confer long term (15 day) protection

NH2-RRRQRRKKRG-COOH (D-amino acids; Description of sequence Peptide D-TAT (see Table 1))
entry into cells [2]: efficiently and rapidly (less than five minutes) entered cells

NH2-GRKKRRQRRR-COOH (H-GRKKRRQRRR-OH) [L-TAT]
entry into cells [2]: efficiently and rapidly (less than five minutes) entered cells

NH2-IPSPSVEEPHKHRPTTLRLTTLGAQDS-COOH (H-IPSPSVEEPHKHRPTTLRLTTLGAQDS-OH) [IB2-long]
efficiency in binding JNK relative to c-Jun or ATF2 [13]: approximately 100 fold

NH2-PGTGCGDTYRPKRPTTLNLFPQVPRSQDT-COOH (H-PGTGCGDTYRPKRPTTLNLFPQVPRSQDT-OH) [IB1-long]
efficiency in binding JNK relative to c-Jun or ATF2 [13]: approximately 100 fold

CCSCc1ccc2c(c1)c1c3c(c4c5cc(CSCC)ccc5n5c4c1n2[C@H]1C[C@](O)(C(=O)OC)[C@]5(C)O1)CNC3=O [CEP-1347]
neuronal survival [14]: promotes neuronal survival
neuronal survival [15]: promotes neuronal survival
long term-survival of neurons [16]: promote long term-survival
